The test system of the data set is CCRIS mutagenicity, Ames/micronucleus/aberration tests. Description: CCRIS mutagenicity studies.
[1] abbreviates: Test System: AMES SALMONELLA TYPHIMURIUM, Strain/Indicator: TA98, Metabolic Activation: NONE, Method: PREINCUBATION

Active and inactive are the calls of the source. How the calls were made is not given here.

`C=C(Cl)Cl`: the mutagenic call is “inactive; negative” (End Point: IN VITRO CHROMOSOMAL ABERRATIONS, Test System: CHINESE HAMSTER LUNG (CHL), Metabolic Activation: NONE); “active; positive” (End Point: IN VITRO CHROMOSOMAL ABERRATIONS, Test System: CHINESE HAMSTER LUNG (CHL), Metabolic Activation: RAT. LIVER, S-9, KC-400); “inactive; negative” (End Point: IN VIVO MICRONUCLEUS, Test System: BONE MARROW POLYCHROMATIC ERYTHROCYTES, Species: MOUSE, Strain/Sex: DDY/MALE, Route: GAVAGE (ORAL) ONCE); “inactive; negative” (End Point: IN VIVO MICRONUCLEUS, Test System: BONE MARROW POLYCHROMATIC ERYTHROCYTES, Species: MOUSE, Strain/Sex: DDY/MALE, Route: GAVAGE (ORAL), 4 DOSES AT 24 HR INTERVALS); “inactive; negative” (End Point: IN VIVO MICRONUCLEUS, Test System: MICRONUCLEATED POLYCHROMATIC ERYTHROCYTES, Species: MOUSE, Strain/Sex: ICR/FEMALE (PREGNANT), Route: IP INJECTION ON 18 D OF GESTATION); “inactive; negative” (Test System: AMES SALMONELLA TYPHIMURIUM, Strain/Indicator: RSJ100, Metabolic Activation: NONE, Method: VAPOR PHASE). For the same compound, the mutagenic call runs as follows: (Test System: AMES SALMONELLA TYPHIMURIUM, Strain/Indicator: TA97, Metabolic Activation: NONE, Method: STANDARD PLATE) “inactive; negative”; (Test System: AMES SALMONELLA TYPHIMURIUM, Strain/Indicator: TA97, Metabolic Activation: RAT, LIVER, S-9, AROCLOR 1254, Method: STANDARD PLATE) “active; positive”; (Test System: AMES SALMONELLA TYPHIMURIUM, Strain/Indicator: TA98, Metabolic Activation: NONE, Method: STANDARD PLATE) “inactive; negative”; (Test System: AMES SALMONELLA TYPHIMURIUM, Strain/Indicator: TA98, Metabolic Activation: RAT, LIVER, S-9, AROCLOR 1254, Method: STANDARD PLATE) “active; positive”; (Test System: AMES SALMONELLA TYPHIMURIUM, Strain/Indicator: TA98, Metabolic Activation: RAT, LIVER, S-9, PCB, Method: GAS EXPOSURE) “inactive; negative”; (Test System: AMES SALMONELLA TYPHIMURIUM, Strain/Indicator: TA100, Metabolic Activation: MOUSE, LIVER, S-9, PHENOBARBITAL, Method: DESICCATOR) “active; positive”. The mutagenic call runs as follows: (Test System: AMES SALMONELLA TYPHIMURIUM, Strain/Indicator: TA100, Metabolic Activation: NONE, Method: STANDARD PLATE) “active; positive”; (Test System: AMES SALMONELLA TYPHIMURIUM, Strain/Indicator: TA100, Metabolic Activation: RAT, LIVER, S-9, AROCLOR 1254, Method: DESICCATOR) “active; positive”; (Test System: AMES SALMONELLA TYPHIMURIUM, Strain/Indicator: TA100, Metabolic Activation: RAT, LIVER, S-9, AROCLOR 1254, Method: STANDARD PLATE) “active; positive”; (Test System: AMES SALMONELLA TYPHIMURIUM, Strain/Indicator: TA100, Metabolic Activation: RAT, LIVER, S-9, PCB, Method: GAS EXPOSURE) “active; positive”; (Test System: AMES SALMONELLA TYPHIMURIUM, Strain/Indicator: TA100, Metabolic Activation: RAT, LIVER, S-9, PHENOBARBITAL, Method: DESICCATOR) “active; positive”; (Test System: AMES SALMONELLA TYPHIMURIUM, Strain/Indicator: TA104, Metabolic Activation: NONE, Method: STANDARD PLATE) “inactive; negative”. In addition, the mutagenic call (Test System: AMES SALMONELLA TYPHIMURIUM, Strain/Indicator: TA104, Metabolic Activation: RAT, LIVER, S-9, AROCLOR 1254, Method: STANDARD PLATE) was “inactive; negative”; the mutagenic call (Test System: AMES SALMONELLA TYPHIMURIUM, Strain/Indicator: TA1530, Metabolic Activation: MOUSE, LIVER, S-9, PHENOBARBITAL, Method: DESICCATOR) was “active; positive”; the mutagenic call (Test System: AMES SALMONELLA TYPHIMURIUM, Strain/Indicator: TA1535, Metabolic Activation: HAMSTER, LIVER, S-9, AROCLOR 1254, Method: DESICCATOR) is “active; positive”; the mutagenic call (Test System: AMES SALMONELLA TYPHIMURIUM, Strain/Indicator: TA1535, Metabolic Activation: MOUSE, KIDNEY, S-9, Method: DESICCATOR) was “active; positive”; the mutagenic call (Test System: AMES SALMONELLA TYPHIMURIUM, Strain/Indicator: TA1535, Metabolic Activation: MOUSE, LIVER, S-9, AROCLOR 1254, Method: DESICCATOR) was “active; positive”; the mutagenic call (Test System: AMES SALMONELLA TYPHIMURIUM, Strain/Indicator: TA1535, Metabolic Activation: RAT, LIVER, S-9, AROCLOR 1254, Method: DESICCATOR) was “active; positive”. The mutagenic call (Test System: AMES SALMONELLA TYPHIMURIUM, Strain/Indicator: TA1535, Metabolic Activation: RAT, LIVER, S-9, PCB, Method: GAS EXPOSURE) was “active; positive”; the mutagenic call (Test System: AMES SALMONELLA TYPHIMURIUM, Strain/Indicator: TA1535, Metabolic Activation: RAT, LIVER, S-9, PHENOBARBITAL, Method: DESICCATOR) is “active; positive”; the mutagenic call (Test System: AMES SALMONELLA TYPHIMURIUM, Strain/Indicator: TA1537, Metabolic Activation: RAT, LIVER, S-9, PCB, Method: GAS EXPOSURE) was “inactive; negative”; the mutagenic call (Test System: AMES SALMONELLA TYPHIMURIUM, Strain/Indicator: TA1538, Metabolic Activation: RAT, LIVER, S-9, PCB, Method: GAS EXPOSURE) is “inactive; negative”; the mutagenic call (Test System: AMES SALMONELLA TYPHIMURIUM, Strain/Indicator: TA2637, Metabolic Activation: RAT, LIVER, S-9, PCB, Method: GAS EXPOSURE) is “inactive; negative”; the mutagenic call (Test System: AMES SALMONELLA TYPHIMURIUM, Strain/Indicator: TPT100, Metabolic Activation: NONE, Method: VAPOR PHASE) is “active; positive”. Also, the mutagenic call was “active; positive” (Test System: E. COLI, Strain/Indicator: WP2 UVRA (PKM101), Metabolic Activation: RAT, LIVER, S-9, PCB, Method: GAS EXPOSURE); “active; positive” (Test System: E. COLI, Strain/Indicator: WP2 UVRA, Metabolic Activation: RAT, LIVER, S-9, PCB, Method: GAS EXPOSURE); “inactive; negative” (Test System: MOUSE LYMPHOMA, Strain/Indicator: L5178Y (TK+/TK-), Metabolic Activation: NONE, Method: SUSPENSION/PLATE); “active; positive” (Test System: MOUSE LYMPHOMA, Strain/Indicator: L5178Y (TK+/TK-), Metabolic Activation: RAT, LIVER, S-9, Method: SUSPENSION/PLATE).
Consider `NCCS(=O)(=O)O`, for which the mutagenic call by setting is: (Test System: AMES SALMONELLA TYPHIMURIUM, Strain/Indicator: TA97, Metabolic Activation: HAMSTER, LIVER, S-9, AROCLOR 1254 (10 OR 30%), Method: PREINCUBATION) “inactive; negative”; (Test System: AMES SALMONELLA TYPHIMURIUM, Strain/Indicator: TA97, Metabolic Activation: NONE, Method: PREINCUBATION) “inactive; negative”; (Test System: AMES SALMONELLA TYPHIMURIUM, Strain/Indicator: TA97, Metabolic Activation: RAT, LIVER, S-9, AROCLOR 1254 (10 OR 30%), Method: PREINCUBATION) “inactive; negative”; (Test System: AMES SALMONELLA TYPHIMURIUM, Strain/Indicator: TA98, Metabolic Activation: HAMSTER, LIVER, S-9, AROCLOR 1254 (10 OR 30%), Method: PREINCUBATION) “inactive; negative”; under setting [1], “inactive; negative”; (Test System: AMES SALMONELLA TYPHIMURIUM, Strain/Indicator: TA98, Metabolic Activation: RAT, LIVER, S-9, AROCLOR 1254 (10 OR 30%), Method: PREINCUBATION) “inactive; negative”. In addition, the mutagenic call is, setting by setting: (Test System: AMES SALMONELLA TYPHIMURIUM, Strain/Indicator: TA100, Metabolic Activation: HAMSTER, LIVER, S-9, AROCLOR 1254 (10 OR 30%), Method: PREINCUBATION) “inactive; negative”; (Test System: AMES SALMONELLA TYPHIMURIUM, Strain/Indicator: TA100, Metabolic Activation: NONE, Method: PREINCUBATION) “inactive; negative”; (Test System: AMES SALMONELLA TYPHIMURIUM, Strain/Indicator: TA100, Metabolic Activation: RAT, LIVER, S-9, AROCLOR 1254 (10 OR 30%), Method: PREINCUBATION) “inactive; negative”; (Test System: AMES SALMONELLA TYPHIMURIUM, Strain/Indicator: TA1535, Metabolic Activation: HAMSTER, LIVER, S-9, AROCLOR 1254 (10 OR 30%), Method: PREINCUBATION) “inactive; negative”; (Test System: AMES SALMONELLA TYPHIMURIUM, Strain/Indicator: TA1535, Metabolic Activation: NONE, Method: PREINCUBATION) “inactive; negative”; (Test System: AMES SALMONELLA TYPHIMURIUM, Strain/Indicator: TA1535, Metabolic Activation: RAT, LIVER, S-9, AROCLOR 1254 (10 OR 30%), Method: PREINCUBATION) “inactive; negative”.
`CNC(=O)C=Cc1ccc([N+](=O)[O-])o1`: under setting [1], the mutagenic call was “active; positive”.

These data come from PubChem BioAssay AID1259407 (Chemical Carcinogenesis Research Information System (CCRIS), 2018).
